Patent US9907760B2 (LIBRAGEN, priority 2010, dated 2018)

How the values were obtained:
[1] = tested on: acid GAGs in the papillary dermis; assay: Acid glycosaminoglycan (GAG) content of human skin explants (alcian blue staining, image analysis); assay type: cell-based
Procedure: In particular, the following parameters were evaluated: • general skin morphology after staining with Masson trichrome, • acid glycosaminoglycan (GAG) content after alcian blue staining, • expression level of the hyaluronic acid CD44 receptor after immunolabeling of this receptor.
Thirty-three explants (approximately 10 mm in diameter) were taken from a person (P712AB36) undergoing abdominoplasty. The explants were divided into 11 groups of three explants and placed in special skin explant survival medium.
RetinOx+Day cream was applied on the explants at 1 mg/cm^2 on days D0, D2, D3, D6 and D8.
On D0, D2, D3, D6 and D8, 30 μA of products P1, P2 and P3 were deposited on filter paper disks placed on the explants.
On D0, the three explants in group CO were sampled and cut in two. One-half was fixed in ordinary Bouin's solution and the other half stored at −80° C. On D6 and D10, three explants from each group were sampled and treated in the same manner.
After 48 hours of fixing in ordinary Bouin's solution, samples were dried and impregnated in paraffin using a Leica 1020 automated tissue processor, then embedded according to operating procedure MO-H-153 using a Leica EG 1160 embedding station. 5 μm sections were prepared according to operating procedure MO-H-173 using a Leica RM 2125 Minot microtome and mounted on Superfrost® histologic glass microscope slides.
Acid GAGs were visualized with alcian blue staining. They were present throughout the papillary dermis.
In this zone, the GAGs under study are stained blue and correspond to acid GAGs.
The intensity of staining was quantified by image analysis.
Acid GAGs were quantified by image analysis. The results are expressed as the percentage of the analyzed area in Table 10 below.

normal human fibroblasts = assay: Procollagen 1 production by normal human fibroblasts treated with supernatant of treated keratinocytes (EIA); assay type: cell-based; details: supernatant on fibroblasts 48 hrs; for % stimulation (procollagen 1): vs Control
Procedure: This experiment was carried out according to the method described in example 3. Fibroblast supernatants, containing procollagen 1, were collected and assayed immediately for procollagen 1 by means of an EIA microtiter plate.
After 48 hours of treatment, NHF cell supernatants were collected and centrifuged.
Procollagen 1 was assayed in the cell supernatants by the method described in the Procollagen Type 1 C-peptide EIA kit (MK101, Takara). This is an EIA assay with spectrophotometric detection at 450 nm (Safire, Tecan).
Duplicate determinations were carried out for two wells whereas the third well was assayed only once.
Optical densities (OD) measured on each sample were plotted on a graph (specific standard curve in the kit). The procollagen 1 concentration was expressed in ng/ml.
As in example 3, the protein content was determined in the cell pellets of the supernatants for which procollagen 1 was assayed.
Thus, the final result was expressed as ng/ml of procollagen 1 per μg of protein. A mean value was calculated for wells treated with the same concentration of test product. This mean was compared with the mean of the control wells (Student t test−comparison of means, significant difference at 95% if p<0.05* and at 99% if p<0.01**).
The percent stimulation produced by the test products was determined by comparing the mean values of the control and treatment conditions: % Stimulation=(Treated−Control)/Control

Structure (SMILES): CC(=O)N[C@H]1C(O)O[C@H](COP(=O)(O)O)[C@@H](O)[C@@H]1O (some centres unmarked) [NAG6P, N-acetylglucosamine-6-phosphate]
- Acid GAGs, visual analysis ([1]; D6, NAG6P 1% to 0.01%): moderate along the DEJ and present throughout the papillary dermis, in a dose-dependent manner
- Percentage of area occupied by acid GAGs in the papillary dermis, % of analyzed area, Mean ([1]; D10, NAG6P 0.01%): 14.0%
- Percentage of area occupied by acid GAGs in the papillary dermis, % of analyzed area, Mean ([1]; D10, NAG6P 0.1%): 16.3%
- Percentage of area occupied by acid GAGs in the papillary dermis, % of analyzed area, Mean ([1]; D10, NAG6P 1%): 21.0%
- Acid GAGs, visual analysis ([1]; D10, NAG6P 1% to 0.01%): moderately present along the DEJ and throughout the papillary dermis, in a dose-dependent manner
- Procollagen 1 (normal human fibroblasts; 5 mM on keratinocytes 48 hrs): 653.4 ± 36.6 ng/mL
- Procollagen 1 (ng/ml/μg prot.) (normal human fibroblasts; 5 mM on keratinocytes 48 hrs): 74.6 ± 5.3 ng/ml/μg prot.
- % stimulation (procollagen 1) (normal human fibroblasts; 5 mM on keratinocytes 48 hrs): 2%
- Procollagen 1 (normal human fibroblasts; 10 mM on keratinocytes 48 hrs): 677.7 ± 64.6 ng/mL
- Procollagen 1 (ng/ml/μg prot.) (normal human fibroblasts; 10 mM on keratinocytes 48 hrs): 72.7 ± 4.4 ng/ml/μg prot.
- % stimulation (procollagen 1) (normal human fibroblasts; 10 mM on keratinocytes 48 hrs): −1%
